One experiment has as its target T1, KasA (Mycobacterium tuberculosis, UniProt P9WQD9).
T1 construct: recombinant KasA from pET28a-kasA
The experiment can be described thus: […] Å co-crystal structure; […]; also chemoproteomic Kd app […] and […] enzyme inhibition at […]. In kind it is binding.

In a further experiment the target is T2, α1 nicotinic AChR (Homo sapiens, UniProt P02708).
T2 construct: gene CHRNA1
The experiment can be described thus: cell-based. Set-up: off-target selectivity panel, receptor antagonist, channel blocker or transporter inhibition mode, pXC50. The note with it: read-out: pXC50 (blocker / transporter inhibition) (converted). An excerpt:
(§1) From the outset, GSK3011724A, an indazole sulfonamide (Fig. 1a), represented an attractive compound for early stage drug discovery based on its anti-mycobacterial potency, small size and moderate lipophilicity (Table 1). Further profiling in vitro using standard assays, such as the hERG ion channel and cytochrome P450 isoforms supported this view (Table 1). […] A description of this optimization effort along with a thorough discussion of the drug development potential and liabilities of this series will be the subject of a future publication.

A further experiment addresses T3, Histamine H1 (Homo sapiens, UniProt P35367).
T3 construct: gene HRH1
The experiment can be described thus: cell-based. As to conditions: antagonist mode; read-out: pXC50 (antagonist) (converted). More on the design: off-target selectivity panel, receptor antagonist, channel blocker or transporter inhibition mode, pXC50.
Excerpt: as §1

In another experiment the target is T4, Vasopressin V1a (Homo sapiens, UniProt P37288).
T4 construct: gene AVPR1A
The experiment can be described thus: cell-based. More on the design: off-target selectivity panel, receptor antagonist, channel blocker or transporter inhibition mode, pXC50. As to conditions: antagonist mode; read-out: pXC50 (antagonist) (converted).
Excerpt: as §1

The target of a further experiment is T5, Muscarine M2 (Homo sapiens, UniProt P08172).
T5 construct: gene CHRM2
The experiment can be described thus: cell-based. The note with it: antagonist mode; read-out: pXC50 (antagonist) (converted). Set-up: off-target selectivity panel, receptor antagonist, channel blocker or transporter inhibition mode, pXC50.
Excerpt: as §1

Experiment [1] addresses T6, L-type Ca channel (CaV1.2) (Homo sapiens, UniProt Q13936).
T6 construct: gene CACNA1C
The experiment in a line: cell-based. More on the design: off-target selectivity panel, receptor antagonist, channel blocker or transporter inhibition mode, pXC50. The note with it: read-out: pXC50 (blocker / transporter inhibition) (converted).
Excerpt: as §1

The target of another experiment is T7, Kv1.5 (Homo sapiens, UniProt P22460).
T7 construct: gene KCNA5
The experiment can be described thus: cell-based. Set-up: off-target selectivity panel, receptor antagonist, channel blocker or transporter inhibition mode, pXC50. As to conditions: read-out: pXC50 (blocker / transporter inhibition) (converted).
Excerpt: as §1

In another experiment the target is T8, OATP1B1 (Homo sapiens, UniProt Q9Y6L6).
T8 construct: gene SLCO1B1
The experiment in a line: cell-based. Set-up: off-target selectivity panel, receptor antagonist, channel blocker or transporter inhibition mode, pXC50. As to conditions: read-out: pXC50 (blocker / transporter inhibition) (converted).
Excerpt: as §1

The next experiment concerns the target T9, Dopamine D1 (Homo sapiens, UniProt P21728).
T9 construct: gene DRD1
The experiment can be described thus: cell-based. Set-up: off-target selectivity panel, receptor antagonist, channel blocker or transporter inhibition mode, pXC50. As to conditions: antagonist mode; read-out: pXC50 (antagonist) (converted).
Excerpt: as §1

The next experiment has as its target T10, Serotonin 5HT1B (Homo sapiens, UniProt P28222).
T10 construct: gene HTR1B
The experiment in a line: cell-based. Set-up: off-target selectivity panel, receptor antagonist, channel blocker or transporter inhibition mode, pXC50. As to conditions: antagonist mode; read-out: pXC50 (antagonist) (converted).
Excerpt: as §1

A further experiment addresses T11, Serotonin 5HT2A (Homo sapiens, UniProt P28223).
T11 construct: gene HTR2A
The experiment in a line: cell-based. Set-up: off-target selectivity panel, receptor antagonist, channel blocker or transporter inhibition mode, pXC50. The note with it: antagonist mode; read-out: pXC50 (antagonist) (converted).
Excerpt: as §1

The target in a further experiment is T12, Serotonin 5HT2C (Homo sapiens, UniProt P28335).
T12 construct: gene HTR2C
The experiment can be described thus: cell-based. Set-up: off-target selectivity panel, receptor antagonist, channel blocker or transporter inhibition mode, pXC50. As to conditions: antagonist mode; read-out: pXC50 (antagonist) (converted).
Excerpt: as §1

The next experiment has as its target T13, Neurokinin NK1 (Homo sapiens, UniProt P25103).
T13 construct: gene TACR1
The experiment in a line: cell-based. Set-up: off-target selectivity panel, receptor antagonist, channel blocker or transporter inhibition mode, pXC50. As to conditions: antagonist mode; read-out: pXC50 (antagonist) (converted).
Excerpt: as §1

In another experiment the target is T14, Serotonin 5HT3 (Homo sapiens, UniProt P46098).
T14 construct: gene HTR3A
The experiment can be described thus: cell-based. Set-up: off-target selectivity panel, receptor antagonist, channel blocker or transporter inhibition mode, pXC50. As to conditions: read-out: pXC50 (blocker / transporter inhibition) (converted).
Excerpt: as §1

The target in the next experiment is T15, NaV1.5 (Homo sapiens, UniProt Q14524).
T15 construct: gene SCN5A
The experiment in a line: cell-based. The note with it: read-out: pXC50 (blocker / transporter inhibition) (converted). Set-up: off-target selectivity panel, receptor antagonist, channel blocker or transporter inhibition mode, pXC50.
Excerpt: as §1

The next experiment deals with T16, Dopamine D2 (Homo sapiens, UniProt P14416).
T16 construct: gene DRD2
The experiment can be described thus: cell-based. Set-up: off-target selectivity panel, receptor antagonist, channel blocker or transporter inhibition mode, pXC50. As to conditions: antagonist mode; read-out: pXC50 (antagonist) (converted).
Excerpt: as §1

Another experiment concerns the target T17, hERG (Homo sapiens, UniProt Q12809).
T17 construct: gene KCNH2
The experiment in a line: cell-based. Set-up: off-target selectivity panel, receptor antagonist, channel blocker or transporter inhibition mode, pXC50. The note with it: read-out: pXC50 (blocker / transporter inhibition) (converted).
Excerpt: as §1

In the next experiment the target is T18, KCNQ1/minK (Homo sapiens, UniProt P15382+P51787).
T18 construct: gene KCNE1
The experiment in a line: cell-based. As to conditions: read-out: pXC50 (blocker / transporter inhibition) (converted). More on the design: off-target selectivity panel, receptor antagonist, channel blocker or transporter inhibition mode, pXC50.
Excerpt: as §1

The next experiment concerns the target T19, Adrenergic α1B (Homo sapiens, UniProt P35368).
T19 construct: gene ADRA1B
The experiment in a line: cell-based. Set-up: off-target selectivity panel, receptor antagonist, channel blocker or transporter inhibition mode, pXC50. As to conditions: antagonist mode; read-out: pXC50 (antagonist) (converted).
Excerpt: as §1

A further experiment concerns the target T20, Adrenergic β2 (Homo sapiens, UniProt P07550).
T20 construct: gene ADRB2
The experiment in a line: cell-based. More on the design: off-target selectivity panel, receptor antagonist, channel blocker or transporter inhibition mode, pXC50. The note with it: antagonist mode; read-out: pXC50 (antagonist) (converted).
Excerpt: as §1

T5 sequence (P08172 whole entry): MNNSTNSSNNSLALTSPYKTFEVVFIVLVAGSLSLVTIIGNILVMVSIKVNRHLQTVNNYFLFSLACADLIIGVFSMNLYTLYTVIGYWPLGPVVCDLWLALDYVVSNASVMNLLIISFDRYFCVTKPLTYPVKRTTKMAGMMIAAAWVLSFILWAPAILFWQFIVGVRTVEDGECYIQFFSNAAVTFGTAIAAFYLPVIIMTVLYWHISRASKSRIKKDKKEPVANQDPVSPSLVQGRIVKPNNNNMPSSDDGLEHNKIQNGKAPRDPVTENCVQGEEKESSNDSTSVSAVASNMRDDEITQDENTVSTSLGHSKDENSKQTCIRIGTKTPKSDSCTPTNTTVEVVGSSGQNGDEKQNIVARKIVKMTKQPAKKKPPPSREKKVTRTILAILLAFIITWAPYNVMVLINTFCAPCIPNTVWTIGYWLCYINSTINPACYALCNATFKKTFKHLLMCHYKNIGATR
T9 sequence (P21728 whole entry): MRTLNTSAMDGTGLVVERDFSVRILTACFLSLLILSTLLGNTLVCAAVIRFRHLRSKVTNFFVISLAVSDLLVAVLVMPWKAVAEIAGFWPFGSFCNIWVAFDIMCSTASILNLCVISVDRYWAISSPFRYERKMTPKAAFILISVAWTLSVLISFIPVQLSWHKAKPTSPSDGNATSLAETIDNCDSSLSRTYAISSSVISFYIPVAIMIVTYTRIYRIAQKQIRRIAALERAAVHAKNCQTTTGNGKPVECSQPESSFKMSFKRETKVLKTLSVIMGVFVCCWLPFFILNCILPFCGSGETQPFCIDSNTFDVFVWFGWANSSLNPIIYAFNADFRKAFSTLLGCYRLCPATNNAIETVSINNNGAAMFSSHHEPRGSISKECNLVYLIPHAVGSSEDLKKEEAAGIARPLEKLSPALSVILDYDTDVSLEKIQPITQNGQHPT
T15 sequence (Q14524 whole entry): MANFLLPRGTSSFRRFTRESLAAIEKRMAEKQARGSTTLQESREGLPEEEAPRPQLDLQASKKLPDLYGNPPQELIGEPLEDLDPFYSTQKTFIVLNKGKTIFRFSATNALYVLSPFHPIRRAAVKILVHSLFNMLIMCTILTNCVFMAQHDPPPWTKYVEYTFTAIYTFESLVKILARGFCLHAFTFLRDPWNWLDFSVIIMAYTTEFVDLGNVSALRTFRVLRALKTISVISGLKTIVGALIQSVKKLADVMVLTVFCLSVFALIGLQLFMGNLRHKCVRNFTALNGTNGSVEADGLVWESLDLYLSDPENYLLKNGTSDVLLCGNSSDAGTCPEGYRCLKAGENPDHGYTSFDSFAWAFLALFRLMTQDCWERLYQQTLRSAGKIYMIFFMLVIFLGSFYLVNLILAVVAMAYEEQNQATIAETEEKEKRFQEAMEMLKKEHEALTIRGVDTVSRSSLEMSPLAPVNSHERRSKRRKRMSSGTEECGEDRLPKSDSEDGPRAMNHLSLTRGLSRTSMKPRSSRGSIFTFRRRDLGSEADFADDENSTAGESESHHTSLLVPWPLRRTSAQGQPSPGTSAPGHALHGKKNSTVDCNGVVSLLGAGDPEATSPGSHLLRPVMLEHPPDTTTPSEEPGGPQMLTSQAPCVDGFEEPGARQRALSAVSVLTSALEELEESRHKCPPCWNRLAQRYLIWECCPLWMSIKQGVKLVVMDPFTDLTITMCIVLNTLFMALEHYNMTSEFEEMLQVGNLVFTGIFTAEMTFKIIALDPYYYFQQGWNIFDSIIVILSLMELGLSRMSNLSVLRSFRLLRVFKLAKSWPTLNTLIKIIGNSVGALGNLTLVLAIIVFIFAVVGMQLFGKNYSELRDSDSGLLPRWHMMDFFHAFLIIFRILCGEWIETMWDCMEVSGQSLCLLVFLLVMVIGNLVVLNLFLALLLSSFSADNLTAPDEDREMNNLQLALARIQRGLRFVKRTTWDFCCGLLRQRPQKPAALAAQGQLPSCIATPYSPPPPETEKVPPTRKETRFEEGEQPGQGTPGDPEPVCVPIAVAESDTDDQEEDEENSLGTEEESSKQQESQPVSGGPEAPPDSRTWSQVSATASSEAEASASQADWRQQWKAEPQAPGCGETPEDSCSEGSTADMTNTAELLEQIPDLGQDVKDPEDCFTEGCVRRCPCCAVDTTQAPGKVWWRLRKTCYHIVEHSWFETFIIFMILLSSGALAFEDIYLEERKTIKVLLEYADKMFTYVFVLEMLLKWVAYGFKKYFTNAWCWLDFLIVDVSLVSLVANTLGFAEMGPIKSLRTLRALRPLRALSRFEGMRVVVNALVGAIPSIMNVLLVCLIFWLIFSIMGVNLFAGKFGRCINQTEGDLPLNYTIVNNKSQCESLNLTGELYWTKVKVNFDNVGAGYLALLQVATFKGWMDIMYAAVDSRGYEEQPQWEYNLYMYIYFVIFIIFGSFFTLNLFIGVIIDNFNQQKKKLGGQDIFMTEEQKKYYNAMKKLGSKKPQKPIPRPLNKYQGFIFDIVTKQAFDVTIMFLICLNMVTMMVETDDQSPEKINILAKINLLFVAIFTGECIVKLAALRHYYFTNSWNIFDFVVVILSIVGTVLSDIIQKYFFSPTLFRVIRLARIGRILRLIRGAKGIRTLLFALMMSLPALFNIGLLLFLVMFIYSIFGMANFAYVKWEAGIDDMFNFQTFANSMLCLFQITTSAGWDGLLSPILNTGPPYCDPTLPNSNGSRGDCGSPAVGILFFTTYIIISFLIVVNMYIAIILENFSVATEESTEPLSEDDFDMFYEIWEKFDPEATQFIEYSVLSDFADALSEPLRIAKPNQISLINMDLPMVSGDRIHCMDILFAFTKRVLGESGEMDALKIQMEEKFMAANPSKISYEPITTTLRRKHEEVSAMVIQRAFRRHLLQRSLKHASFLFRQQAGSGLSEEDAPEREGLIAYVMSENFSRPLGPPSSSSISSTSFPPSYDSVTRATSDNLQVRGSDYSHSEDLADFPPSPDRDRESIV
T7 sequence (P22460 whole entry): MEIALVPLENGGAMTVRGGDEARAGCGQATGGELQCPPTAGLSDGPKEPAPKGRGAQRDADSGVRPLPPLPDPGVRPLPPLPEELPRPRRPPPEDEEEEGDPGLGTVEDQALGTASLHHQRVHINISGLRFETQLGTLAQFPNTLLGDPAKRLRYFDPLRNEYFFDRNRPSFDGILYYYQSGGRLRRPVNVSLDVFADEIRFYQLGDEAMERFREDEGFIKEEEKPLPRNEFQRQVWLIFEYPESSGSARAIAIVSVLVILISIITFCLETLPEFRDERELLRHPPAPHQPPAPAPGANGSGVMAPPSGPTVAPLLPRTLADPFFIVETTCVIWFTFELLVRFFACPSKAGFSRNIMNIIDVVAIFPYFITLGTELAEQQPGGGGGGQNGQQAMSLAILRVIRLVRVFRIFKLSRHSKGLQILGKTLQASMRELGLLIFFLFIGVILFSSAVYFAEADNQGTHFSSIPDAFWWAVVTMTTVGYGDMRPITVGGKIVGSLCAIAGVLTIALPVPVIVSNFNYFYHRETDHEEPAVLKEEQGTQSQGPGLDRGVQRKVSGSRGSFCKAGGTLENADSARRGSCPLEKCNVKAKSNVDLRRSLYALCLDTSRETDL
T4 sequence (P37288 whole entry): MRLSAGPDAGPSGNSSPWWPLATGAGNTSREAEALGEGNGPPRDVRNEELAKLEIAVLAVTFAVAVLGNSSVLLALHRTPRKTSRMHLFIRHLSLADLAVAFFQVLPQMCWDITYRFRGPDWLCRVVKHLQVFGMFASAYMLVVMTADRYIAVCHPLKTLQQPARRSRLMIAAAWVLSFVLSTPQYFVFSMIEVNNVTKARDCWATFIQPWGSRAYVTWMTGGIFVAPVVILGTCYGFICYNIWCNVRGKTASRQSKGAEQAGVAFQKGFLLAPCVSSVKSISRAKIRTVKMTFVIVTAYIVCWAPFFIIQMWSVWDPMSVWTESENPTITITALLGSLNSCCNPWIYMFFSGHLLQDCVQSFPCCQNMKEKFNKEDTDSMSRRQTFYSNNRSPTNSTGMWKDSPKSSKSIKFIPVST
T12 sequence (P28335 whole entry): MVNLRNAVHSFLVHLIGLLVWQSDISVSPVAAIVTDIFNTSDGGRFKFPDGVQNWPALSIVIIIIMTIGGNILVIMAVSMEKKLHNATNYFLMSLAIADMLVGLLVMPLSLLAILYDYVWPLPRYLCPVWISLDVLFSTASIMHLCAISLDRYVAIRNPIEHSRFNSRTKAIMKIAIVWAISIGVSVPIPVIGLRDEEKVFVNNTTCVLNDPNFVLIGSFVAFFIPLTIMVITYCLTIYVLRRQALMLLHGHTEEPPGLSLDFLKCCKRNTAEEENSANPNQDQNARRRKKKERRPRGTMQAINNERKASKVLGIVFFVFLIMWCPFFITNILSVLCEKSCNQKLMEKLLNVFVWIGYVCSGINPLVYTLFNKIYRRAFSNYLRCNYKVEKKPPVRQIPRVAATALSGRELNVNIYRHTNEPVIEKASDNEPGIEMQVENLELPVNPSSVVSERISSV
T11 sequence (P28223 whole entry, looked up): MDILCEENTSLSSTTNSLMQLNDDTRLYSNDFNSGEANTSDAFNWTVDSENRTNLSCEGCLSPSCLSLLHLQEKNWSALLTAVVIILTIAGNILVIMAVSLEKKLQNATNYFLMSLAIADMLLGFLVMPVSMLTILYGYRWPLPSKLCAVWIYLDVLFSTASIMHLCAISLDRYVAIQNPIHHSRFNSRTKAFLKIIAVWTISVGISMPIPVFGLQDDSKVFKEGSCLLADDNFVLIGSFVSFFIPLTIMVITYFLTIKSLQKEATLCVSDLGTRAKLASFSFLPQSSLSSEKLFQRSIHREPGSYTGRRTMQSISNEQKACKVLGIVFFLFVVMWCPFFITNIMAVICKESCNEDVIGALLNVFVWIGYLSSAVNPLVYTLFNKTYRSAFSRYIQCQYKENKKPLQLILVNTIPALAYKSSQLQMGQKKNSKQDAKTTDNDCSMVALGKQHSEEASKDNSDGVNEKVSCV

`CCCCS(=O)(=O)Nc1ccc2cnn(C)c2c1` [GSK3011724A] yielded a Kd on KasA of 0.01 to 0.02 µM. Further, the IC50 on α1 nicotinic AChR was greater than 50.1 µM; on Histamine H1 it was greater than 25.1 µM; on Vasopressin V1a it was greater than 50.1 µM; at Muscarine M2, greater than 50.1 µM; in [1], greater than 100 µM; at Kv1.5, greater than 50.1 µM. Also, the IC50 on OATP1B1 was greater than 50.1 µM; at Dopamine D1, greater than 100 µM; at Serotonin 5HT1B it was greater than 100 µM; on Serotonin 5HT2A, greater than 25.1 µM; on Serotonin 5HT2C, greater than 25.1 µM; at Neurokinin NK1 it was greater than 25.1 µM. The IC50 is greater than 50.1 µM on Serotonin 5HT3; greater than 100 µM at NaV1.5; greater than 100 µM at Dopamine D2; greater than 63.1 µM on hERG; greater than 25.1 µM on KCNQ1/minK; greater than 25.1 µM on Adrenergic α1B. Besides, the IC50 on Adrenergic β2 is greater than 100 µM.

Values taken from paper PMC5025758 (Nature Communications, 2016).
